Laboratory results reported in patent US10471076B2, “Compositions and methods to treat vision disorders” (YouHealth Biotech, Limited, priority 2014, dated 2019).
Entries after “also recorded” stand apart in the source; their conditions may differ.

How the values were obtained:
[1] = tested on: cataract-causing mutant crystallin proteins; experiment: Intracellular aggregation of mutant crystallins in transfected human lens progenitor cells; type: cell-based
Experimental: To assess the effect of lanosterol on crystallin aggregation, human lens progenitor cells were co-transfected with LSS and various crystallin constructs for 4 h. Cells co-transfected with crystallin mutants and pcDNA3.1-N-Flag were used as a control. Human lens progenitor cells co-transfected with LSS and crystallin mutant constructs were cultured for 12 h before assaying for aggregates. The rescue experiments were performed after 16 h by addition of 40 mM sterols (lanosterol or cholesterol, Sigma-Aldrich) to the cell culture medium for 2 h, which was then replaced with fresh culture medium and cells cultured for 24 h. The percentage of cells with crystallin aggregates was calculated from ten randomly selected viewing fields. The values of the wild-type LSS group, mutant group, and mutant plus lanosterol group were calculated. Cells treated with 1% DMSO were used as the controls.
The impact of LSS and lanosterol on intracellular crystallin aggregation were evaluated in single-blinded observer studies. Experiments have been repeated at least three times. P values were calculated using Student's t-tests. Fluorescence microscopy. Equal amounts of the human lens progenitor cells, HLEB-3 cells or HeLa cells were seeded on glass coverslips pretreated with TC (Solarbio). After culturing for 24 h to reach 90% confluency, the cells were transfected with plasmids containing various LSS or crystallin genes or co-transfected with plasmids containing a certain crystallin gene and those containing the wild-type or mutated LSS gene. The controls were cells transfected with the plasmids containing peGFP-N1 and/or peDNA3.1-N-Flag. Both transfection and co-transfection were performed using Lipofectamine 3000 (Invitrogen) according to the instructions from the manufacturer.
The effect of lanosterol or cholesterol on the aggresome formation of various crystallins was studied by transfecting the cells with plasmids containing various crystallin genes. The cells were incubated for 24 h to enable efficient protein expression and aggresome formation. The cells were then treated with 0-40 mM sterols in 1% (for human lens progenitor cells) or 2% DMSO (for HeLa cells). Cells treated with 1% or 2% DMSO were used as the control. After treatment for 2 h, the media was replaced with fresh media. After 12 h, the cells were used for microscopy analysis.
The microscopy samples were prepared by washing the slips with phosphate buffered saline (PBS) three times. The cells were fixed with 4% paraformaldehyde for 40 min followed by another three washes with PBS. The cells were permeabilized with 0.1% Triton X-100 (Sigma) in PBS for 10 min and blocked with 5% normal goat serum in PBS for 1 h at 37° C. […] The mounted cells were analysed using a Carl Zeiss LSM 710 confocal microscope.

[2] = tested on: cataract-causing mutant crystallin proteins; experiment: Intracellular aggregation of mutant crystallins in HLEB-3 cells; type: cell-based, human; details: HLEB-3 cells co-transfected with LSS and crystallin mutant; 40 μM sterols 2 h, then 12 h; lanosterol P<1×10^−4, cholesterol P>0.1
Experimental: (§1) FIG. 9A, FIG. 9B, and FIG. 9C show inhibition of crystallin mutant aggregation by wild-type LSS and lanosterol in HLEB-3 cells (FIG. 9A) or HeLa cells (FIG. 9B). Cells co-transfected with LSS and crystallin mutant constructs were cultured for 24 h before assaying for aggregates. The rescue experiments were performed by addition of 40 […] μM sterols (lanosterol or cholesterol) to the cell culture medium for 2 h, the sterol medium was then replaced with fresh culture medium and the cells were cultured for a further 12 h. The percentage of cells with crystallin aggregates were calculated from ten randomly selected viewing fields. The values of the wild-type LSS group, mutant group, or mutant plus lanosterol group were calculated. […] After transfection for 4 h and incubation in fresh culture medium for another 24 h, the cells were lysed and centrifuged to separate supernatant and insoluble fractions. LSS and crystallin fusion proteins were detected by antibodies against Flag and GFP, respectively. Red arrows indicate higher crystalline content in the soluble fraction versus in the insoluble fraction in cells containing the WT-LSS.
(§2) Cells were transfected with various crystallin constructs for 4 h and cultured for an additional 24 h in fresh culture medium. Then the cells were treated with 10, 20 and 40 μM lanosterol in 1% (HLEB-3 cells) or 2% DMSO (HeLa cells) for 2 h and cultured for another 12 h. Cells treated with 1% (HLEB-3 cells) or 2% DMSO (HeLa cells) were used as the controls. Formation of intracellular aggregates of various crystallin proteins was visualized by fluorescence of GFP (green) and the nuclei were stained with Hoechst 33342 (blue). Typical intracellular aggregates are indicated by arrows.
(§3) The impact of LSS and lanosterol on intracellular crystallin aggregation were evaluated in single-blinded observer studies. Experiments have been repeated at least three times. P values were calculated using Student's t-tests. Fluorescence microscopy. […]

[3] = tested on: cataract-causing mutant crystallin proteins; experiment: Intracellular aggregation of mutant crystallins in HeLa cells; type: cell-based, human; details: HeLa cells co-transfected with LSS and crystallin mutant; 40 μM sterols 2 h, then 12 h; lanosterol P<1×10^−4, cholesterol P>0.1
Experimental: as §1, §2, §3

[4] = target: T1, αA-crystallin (Y118D) aggregates (Homo sapiens, UniProt P02489, Y118D); experiment: Serial live-cell imaging, single-particle tracking of aggregates; type: cell-based; details: human lens progenitor cells; 40 mM sterol in 1% DMSO for 4 h
T1 construct: expressed in transfected cells; host or cells: human lens progenitor cells, G418-selected
T1 sequence (P02489 1-173 Y118D): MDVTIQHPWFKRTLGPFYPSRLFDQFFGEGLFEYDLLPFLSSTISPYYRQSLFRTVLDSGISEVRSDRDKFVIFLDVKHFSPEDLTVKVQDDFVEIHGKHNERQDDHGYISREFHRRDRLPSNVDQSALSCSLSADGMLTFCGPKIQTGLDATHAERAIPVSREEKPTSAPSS
Experimental: Live-cell imaging. Human lens progenitor cells were transfected with plasmids containing αA-crystallin (Y118D) mutant. After a 24 h transfection period, the cells with stable expression of αA-crystallin (Y118D) mutant were screen by incubation in culture medium containing 0.8 mg ml^−1 G418 for 7 days. Then the obtained cells were seeded onto glass bottom cell culture dishes (In Vitro Scientific) and treated with 1% DMSO, 40 mM cholesterol in 1% DMSO or 40 mM lanosterol in 1% DMSO for 4 h. Fresh culture medium was added, and the cells were analysed by serial live-cell imaging. Live-cell images were viewed with an Olympus IX81 microscope and captured with CellSens Dimension soft-ware (Olympus). Quantitative analysis of the size of aggregates was performed by measuring the fluorescence intensity of p62-positive aggregates using single-par-tide tracking in live-cell imaging. The live-cell imaging was conducted using three biological replicates with 1-8 repetitions each.

[5] = tested on: amyloid-like fibrils of crystallin proteins; experiment: Re-dissolution of pre-formed amyloid-like fibrils (ThT fluorescence, TEM, turbidity); type: biochemical, human; details: 0.2 mg/ml aggregates; 500 μM sterols in 500 μM DPPC liposome (b129 prints 500 mM), 37° C., 24 h; TEM and ThT fluorescence; concentration-dependent
Experimental: Crystallin aggregates were formed by incubating 5 mg ml^−1 protein solution at 60° C. for 2 h (α-crystallins) or 37° C. for 48 h (β- and γ-crystallins) in the presence of 1 M guanidine chloride. The preformed aggregates were re-suspended in PBS at a final protein concentration of 0.2 mg ml^−1 and were treated with 500 μM sterols in 500 μM DPPC liposome and incubated at 37° C. for 24 h. Aggregates treated with 500 μM DPPC liposome only were used as the controls. […] Aggregates treated with 500 μM DPPC liposome only were used as the controls.
All protein samples were prepared in 20 mM PBS buffer containing 150 mM NaCl, 1 mM EDTA and 1 mM DTT.
Protein aggregation and aggregate dissociation. The aggregates of the wild-type and mutated αA- and αB-crystallin proteins were obtained by heating the protein solutions containing 1 M guanidine chloride (ultrapure, Sigma-Aldrich) at a con-centration of 5 mg/ml at 60° C. for 2 h. The aggregates of the wild-type and mutated b- and c-crystallins were prepared by heating the protein solutions containing 1 M guanidine chloride at 37° C. for 48 h. The formation of aggregates was confirmed by ThT fluorescence, turbidity (absorbance at 400 nm) and transmission electron microscopy (TEM) observations. […] After 24 h of treatment, the protein solutions were used for ThT fluorescence, turbidity and negatively stained TEM observations. […]

LSS = target: T2, LSS (Rattus norvegicus, UniProt P48450); details: cited from earlier work
T2 sequence (P48450 1-733): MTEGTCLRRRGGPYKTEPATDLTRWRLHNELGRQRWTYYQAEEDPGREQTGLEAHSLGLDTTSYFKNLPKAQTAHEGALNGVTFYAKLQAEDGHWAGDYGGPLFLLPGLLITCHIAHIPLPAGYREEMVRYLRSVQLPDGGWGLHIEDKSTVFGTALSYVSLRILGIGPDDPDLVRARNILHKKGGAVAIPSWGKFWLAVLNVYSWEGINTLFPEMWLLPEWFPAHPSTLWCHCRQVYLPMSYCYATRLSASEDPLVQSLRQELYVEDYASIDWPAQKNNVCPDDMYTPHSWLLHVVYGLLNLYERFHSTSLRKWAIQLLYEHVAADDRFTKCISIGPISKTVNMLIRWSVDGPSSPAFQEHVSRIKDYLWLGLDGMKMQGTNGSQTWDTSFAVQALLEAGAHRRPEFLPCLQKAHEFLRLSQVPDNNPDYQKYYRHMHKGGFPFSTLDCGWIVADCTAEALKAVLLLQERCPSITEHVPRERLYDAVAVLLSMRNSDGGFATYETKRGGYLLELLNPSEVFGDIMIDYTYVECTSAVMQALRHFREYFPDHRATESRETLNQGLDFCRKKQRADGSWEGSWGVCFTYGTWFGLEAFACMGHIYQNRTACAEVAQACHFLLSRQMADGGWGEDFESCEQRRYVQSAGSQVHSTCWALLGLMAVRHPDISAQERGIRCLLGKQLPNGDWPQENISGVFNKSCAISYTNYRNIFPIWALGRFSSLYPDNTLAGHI

| SMILES | intracellular aggregation / aggresome formation of crystallin proteins ([1]; 0-40 mM sterols in 1% DMSO for 2 h, then 12 h, concentration-dependent, n=3, lanosterol P<1×10^−4, cholesterol P>0.1) | crystallin aggregation in cells co-expressing an LSS mutant and a mutant crystallin (rescue by sterol) ([1]; 40 mM sterols in culture medium for 2 h, then fresh medium 24 h) | percentage of cells with crystallin aggregates versus control group (rescue) [2] | percentage of cells with crystallin aggregates versus control group (rescue) [3] | effect on αA-crystallin (Y118D) aggregates in live cells [4] | re-dissolution of aggregated crystallin proteins from amyloid-like fibrils [5] | cataract formation by inhibition of LSS (LSS) |
| --- | --- | --- | --- | --- | --- | --- | --- |
| CC(C)CCC[C@@H](C)[C@H]1CC[C@H]2[C@@H]3CC=C4C[C@@H](O)CC[C@]4(C)[C@H]3CC[C@]12C [cholesterol, reference compound] | had no effect; also recorded: did not reduce intracellular aggregation | but not cholesterol | showed no difference to the control group | showed no difference to the control group | did not reduce aggresome formation | but not cholesterol | – |
| CCN(CC)CCO[C@H]1CC[C@@]2(C)C(=CC[C@@H]3[C@@H]2CC[C@]2(C)C(=O)CC[C@@H]32)C1 [U18666A] | – | – | – | – | – | – | cause cataracts |
